# Source: a melting point compilation (Tetko et al.; mined from patent text by program, amines drawn as free bases though some values may be those of a salt)
row,Compound,melting point
1,CCCc1nc(C(=O)C(C)(C)C)c(C#N)n1Cc1ccc(-c2ccccc2-c2nnnn2C(c2ccccc2)(c2ccccc2)c2ccccc2)cc1,107 to 110 °C
2,c1ccc(-c2cc3cccc(CSCCN4CCCCC4)c3o2)cc1,64.5 to 65.5 °C
3,CC(=O)N1CCC(N2C(=O)CN=C(c3ccccc3)c3ccccc32)CC1,208 to 209 °C
4,COC(=O)CC[C@@H](Cc1cn(CCCc2ccccc2)c2ccccc12)NC(=O)CCCCCCc1ccccc1,79.4 to 81 °C
5,CCN1CCN(c2nc(-c3ccc(OCCO)cc3)cc3ccsc23)CC1,135 to 136 °C
6,OC(c1ccc(Cl)cc1)(c1ccc(Cl)cc1)C1CO1 (configuration not stated),87 to 88 °C
7,O=S(=O)(Oc1ccc(-c2cc3ccccc3[nH]2)cc1O)c1ccccc1,158 °C
8,COC(C(=O)O)c1nn(-c2ccccc2)c2c1CCC2 (configuration not stated),106 to 107 °C
9,C=CC(CSCCC(F)(F)C(F)(F)C(F)(F)C(F)(F)C(F)(F)C(F)(F)F)SSc1nc2ccccc2s1 (configuration not stated),47 to 48 °C
10,CCCc1nccn1N=Cc1ccccc1,61 to 62 °C
11,C=CCOc1ncnc2nc[nH]c12,199 to 200 °C
12,CCCCCCCNC(=O)Nc1ccccc1C(=O)N1CCCN(C(c2ccccc2)c2ccccc2)CC1,125 °C
13,CC1(C)CC(=O)Nc2ccccc21,111 to 112 °C
14,O=C(O)C(Br)CCCCCc1ccc(Cl)cc1 (configuration not stated),77 to 79 °C
15,CC(C)(C)OC(=O)[C@@H]1CCCN1C(=O)CCS,57 to 58 °C
16,O=C1c2ccccc2COc2cc(C=NO)ccc21,170 to 172 °C
17,CCCOC(=O)c1ccc(C(=O)NNC(=O)c2ccc(C(=O)OCCC)cc2)cc1,173 to 175 °C
18,CN1C(=S)C(NC(=O)CCC2CCCCC2)N=C(c2ccccc2)c2ccccc21 (configuration not stated),219 to 221 °C
19,CN1CCC(c2cccc(C(F)(F)F)c2)(C(C)(C)O)CC1,111 to 112 °C
20,CC(C)CC(=O)Nc1cccc(-c2ccnc3c(C(=O)c4ccoc4)cnn23)c1,144 to 146 °C
21,COc1cc(-c2nc3ccc(OCC(C)N(C)C)cc3n2Cc2ccccc2Br)cc(OC)c1OC (configuration not stated),152 °C
22,O=C1CCN(Cc2cccnc2)C(=O)C1=C1SC=CS1,132 to 133 °C
23,CN(C)C(=O)N1CCC(c2nn(-c3ccc(C(F)(F)F)cc3)c3ccccc23)CC1,117 to 119 °C
24,O=C(NCCCCn1cncn1)c1ccc(Cl)s1,97 to 99 °C
25,CS(=O)(=O)OCCCc1ccc(OCc2coc(/C=C/c3ccccc3)n2)cc1,111 to 112 °C
26,CC(C)(C)c1ccc(S(=O)(=O)N2c3ccccc3C[C@H]2C(=O)NCc2cccc(O)c2)cc1,94 °C
27,CNC(=O)Nc1nnc(C(F)(F)F)s1,192 to 194 °C
28,CN(C)Cc1cc2c(cc1O)CCC1C2CCC2(C)C(=O)CCC12 (configuration not stated),172 to 173 °C

row,Compound,melting point
1,CNC(=S)Nc1ccccc1-c1ccccc1,152 to 153 °C
2,CCCCOc1nccnc1C1(O)CN2CCC1CC2 (configuration not stated),107 to 108 °C
3,CCCOc1n[nH]c(=O)n1C,74 °C
4,CN(C)C=C(C#N)C(=O)Nc1cc(F)ccc1F,175 to 176 °C
5,O=C1CN=C(c2ccccc2)c2cc(NO)ccc2N1,186 to 187 °C
6,O=C(c1ccc(-c2ccc(Cl)cc2)o1)C1CC1,88 to 89 °C
7,CC(=O)Nc1ccc(NC(=NC#N)Oc2ccccc2)cn1,194 °C
8,CC(C)(C)c1ccc2occ(N)c(=S)c2c1,168 °C
9,Cc1cccc2c(=O)[nH]c(C3CCN(CCCO)CC3)cc12,197 to 199 °C
10,C/C(=C\C=C(c1ccccc1)c1ccccc1)C(=O)O,184 to 186 °C
11,CNCC(O)c1ccc(C)o1 (configuration not stated),40 to 45 °C
12,Cc1nnc2n1-c1sc(CC(=O)N3CCOCC3)cc1C(c1ccccc1Cl)=NC2,143 to 144 °C
13,CC(C)(C)OC(=O)CNC(=O)C(=O)c1cn(Cc2ccccc2)c2ccc(-c3ccc(OC(F)(F)F)cc3)cc12,167 to 168 °C
14,COC(=O)C(=CO)c1ccccc1,33.5 to 35.5 °C
15,O=C(NCCOc1cccc2c1OCC(CO)O2)c1ccc(F)cc1 (configuration not stated),124 °C
16,N#Cc1c(-c2ccccc2)nn2ccccc12,138 to 139 °C
17,CC(C)(C)[Si](OCCOc1ccc([N+](=O)[O-])cn1)(c1ccccc1)c1ccccc1,63 to 64 °C
18,O=C(CN1C(=O)C2(COc3cc(F)c(F)cc32)c2ccccc21)Nc1ccccc1F (configuration not stated),97 to 100 °C
19,CN(OCc1ccccc1)S(=O)(=O)c1ccccc1S(N)(=O)=O,122 to 128 °C
20,CCCCCCCCCCc1ccc2c(c1)C(=O)C(=COC(=O)c1ccccc1)CC2,64 to 66 °C
21,Cc1ccccc1N=C=Nc1ccccc1C,3.5 to 4.5 °C
22,CC(c1ccc(C(F)(F)F)cc1)N(O)C(N)=O (configuration not stated),133 to 135 °C
23,CC(=NOCC(N)=O)c1ccc(Cl)cc1,103 to 104 °C
24,O=C1Nc2cc(CN3CC=C(c4ccccc4)CC3)ccc2OC1F (configuration not stated),239 °C
25,CCC1(C)OC(c2ccc(S(N)(=O)=O)cc2)=C(c2ccccc2)C1=O (configuration not stated),153 to 154 °C
26,CC(C)(C)c1ccc(Sc2ccsc2CN(O)C(N)=O)cc1,144 to 146 °C
27,O=C1C(c2ccc(Cl)cc2)Sc2ccc3ccccc3c2N1CCCCl (configuration not stated),110 to 112 °C

# The next lines start with the values.
row,melting point,Compound
1,128 to 129 °C,COc1cccc(CCOc2cccc(-c3cccc(C(=O)NCCNC(=O)OC(C)(C)C)c3)n2)c1
2,162 to 164 °C,CN1CCCCC1CCc1ccccc1NC(=O)c1ccc([N+](=O)[O-])cc1 (configuration not stated)
3,180 to 181 °C,CC(=O)OCC1OC(C2=NNC(N)(c3ccc(Cl)c(Cl)c3)O2)C(OC(C)=O)C(OC(C)=O)C1OC(C)=O (configuration not stated)
4,224 to 226 °C,COc1cc(-c2nn(C)c(C(N)=O)c2C)c(F)cc1Cl
5,245 to 247 °C,CSc1nc(-c2ccc(S(C)(=O)=O)cc2)n(-c2ccc(C)c(C)c2)c(=O)c1C#N
6,189 to 190 °C,Cc1cc2cc(C#N)c(Cl)nc2cc1C
7,174 °C,O=C(O)C=CCNCS(=O)(=O)c1ccc([N+](=O)[O-])cc1[N+](=O)[O-]
8,145 °C,COc1cc(OCC(=O)O)c(C)cc1SCc1ccc(OCc2ccc(C(F)(F)F)cc2)cc1
9,205 to 207 °C,COC(=O)C1=C(C)NC(C)=C(P(=O)(OC(C)C)OC(C)C)C1c1cccc([N+](=O)[O-])c1 (configuration not stated)
10,155 to 157 °C,CCOC(=O)c1ccc2nc(NC(C)=O)n(S(=O)(=O)N(C)C)c2c1
11,175 to 176 °C,CC(=O)c1ccc(Cl)c(S(N)(=O)=O)c1
12,136 to 138 °C,Cc1cc(NCCOC(=O)c2ccccc2)c2[nH]ncc2n1
13,155 to 157 °C,COC(=O)c1c(C)c([N+](=O)[O-])cc2nc(Cl)c(Cl)nc12
14,148 to 149 °C,CCN(CC)C(=O)COC(=O)c1ccc(O)cc1
15,112 to 114 °C,CC(C)(NCC(F)(F)CN)C(CCn1ccnc1[N+](=O)[O-])=NO
16,190 to 192 °C,CC=CCn1c(Nc2cc(C)cc(C)c2)c(CC)c(=O)[nH]c1=O
17,197 °C,COC(=O)COc1ccc(NC(=O)/C=C/c2ccc(C#N)cc2)cc1
18,> 200 °C,CN(C)CC(=O)NCC#Cc1cnc2c(c1)N(Cc1c(Cl)cccc1Cl)CCN2
19,145 to 148 °C,COc1ccc(S(=O)(=O)C2(CCCCC#Cc3ccc(Cl)cc3)SC(=O)NC2=O)cc1 (configuration not stated)
20,167 to 169 °C,CCOc1cc2ncc(C#N)c(NCc3ccc(F)c(F)c3)c2cc1OCC
21,> 260 °C,COc1cc(OC)c(-c2c(C)noc2C)cc1C=CC(=O)c1ccc(C(=O)O)cc1
22,180 °C,Fc1nc(Cl)c2cc[nH]c2n1
23,164 to 165 °C,CCOC(=O)c1c(OCC)nsc1NC(=O)N(C)C
24,155 to 157 °C,Cn1c(C(=O)O)c(-c2ccc(F)cc2)c2ccn(C)c2c1=O

row,melting point,Compound
1,232 to 234 °C,CCN1CCc2ccc(Nc3ncc(Cl)c(NC4CCCCNC4=O)n3)cc2CC1 (configuration not stated)
2,117 to 119 °C,CCOCc1nc2c(N)nc3cc(-c4cccnc4)ccc3c2n1CCCCNC(=O)OC(C)(C)C
3,55 to 58 °C,COc1nc(C(F)(F)F)cc(=O)n1-c1ccc(Cl)c(OC(C)C)c1
4,162 to 164 °C,CC(=N)Nc1ccc2nc(-c3ccccc3)ncc2c1
5,112 to 114 °C,CC/C(=C\C=C\C(=O)Oc1ccc([N+](=O)[O-])cc1)c1ccc(OC)cc1
6,100 to 105 °C,CSCC(C)(C)NC(=O)c1c(NC(=O)c2cc(C(F)(F)F)nn2-c2ncccc2Cl)ccc2cn[nH]c12
7,100 °C,O=[N+]([O-])c1cccc2ccc3c(c12)C(CCl)CN3 (configuration not stated)
8,184 to 185 °C,CC(C)c1ccc2c(c1)c(-c1ccccc1Cl)c(C(=O)O)c(=O)n2C
9,185 °C,CCOC(=O)c1cn(NCC=O)c2c(F)c(F)c(F)cc2c1=O
10,147 to 148 °C,Cc1oc(-c2ccccc2)nc1COc1ccc(COc2ncccc2CC(=O)O)cn1
11,217 to 225 °C,CC(O)C(=O)Nc1ccc(C2=NNC(=O)NC2C)cc1 (configuration not stated)
12,171 to 172 °C,CNC(=O)c1cnc2ccccc2c1-c1ccccn1
13,71 to 73 °C,CCOCCNC(=O)c1c(Cl)cccc1[Si](C)(C)C
14,162 to 164 °C,COc1ccc(CCNC(=O)CCCCC(=O)NC2Cc3ccccc3C2)cc1OC
15,68 to 70 °C,COc1ccccc1C(C)NCC(=O)Nc1c(C(C)C)cccc1C(C)C (configuration not stated)
16,> 250 °C,Cc1oc2c(NC(=O)c3c(Cl)cccc3Cl)cc(C(N)=O)cc2c1C
17,304 to 310 °C,O=c1[nH]c(=O)n(Cc2ccc(Cl)cc2)c2nc[nH]c12
18,162 to 163 °C,C#CCN(Cc1cc2c(=O)n(C)c(CN3CCCCC3)nc2cc1Cl)c1ccc(C(=O)OC(C)(C)C)cc1
19,119 to 120 °C,COc1ccc(-c2cc(=O)n(CCc3ccc(Cl)cc3Cl)nc2-c2ccc(OC)cc2)cc1
20,85 to 87 °C,COC(=O)c1ccc(Cl)cc1NC(=O)Cc1cccnc1
21,270 to 272 °C,Clc1ccc2c(c1)c(-c1ccccc1)nc1nccn12
22,153 to 154 °C,COc1cc(F)c(C=O)cc1O
23,217 to 219 °C,O=C(Cc1ccc2ccccc2c1)N[C@H]1C[C@H](C(=O)O)Nc2cc(Cl)cc(Cl)c21 (relative stereo)
